# What was measured:
# [1] = system: Arabidopsis thaliana hypocotyl; test: Dark-grown hypocotyl growth of SRF mutants on isoxaben media; format: in vivo
# Protocol: Data is taken from three independent experiments. Data is from hypocotyl lengths relative to wild type plants grown on the same plate and relative to mutants grown on DMSO control media. Student's t-test: *=p<0.05.
# Arabidopsis thaliana ecotype Columbia-0 (Col-0) was used. Before plating seeds were surface sterilized. First, the seeds were washed in 95% ethanol for 10 minutes, which was removed then the sterilization solution was added (20% bleach, 0.05% Tween-20 (Sigma) and double distilled water) and shaken for 10 minutes. The sterilization solution was removed and the seeds were washed three times with sterile distilled water. The seeds were cold treated for 4 days at 4° C. after plating them on the plates. Two different growth media were prepared for these experiments. For the control conditions: one-half strength Murashige and Skoog (MS) salts (Sigma), 0.5% sucrose (Sigma), 0.8% phyto agar (Research Products International Corp.), 1×B5 (1,000× in double distilled water: 10% myo-inositol, 0.1% nicotinic acid and 0.1% pyroxidine HCl) and 1× Thiamin (2,000× in double distilled water: 0.2% thiamin HCl). The other growth media contained either no sucrose but all other components remained the same. Plants used in Fourier Transform Infrared (FT-IR) Microspectroscopy and hypocotyl length, were only grown on sucrose-deprived media in the dark for four days after cold treatment. For selection of mutants from the Arabidopsis Biological Resource Center (ARBC), they were first plated onto MS media containing 50 μg/ml Kanamycin to select for insertions containing the NTPII (Kanamycin resistance) gene. In the case this resistance is lost the seeds were also sown onto regular MS media containing no antibiotic and then transferred to soil after one week. Plants were then grown on soil for 2-3 weeks after transfer from the plates and they were examined for status of the T-DNA insertion. Only homozygous T3 and T4 knockout mutants were used for the following experiments.
# Isoxaben is a specific inhibitor of cellulose synthesis by affecting the function of the CesA proteins involved in primary cell wall synthesis, such as CesA3 and CesA6 (Scheible et al., 2001; Persson et al., 2007). Because SRF7 in particular is co-expressed with these same CesA genes the effects of isoxaben on SRF mutants was examined. […] The results which are in agreement with the dark-grown hypocotyl phenotypes of the srf mutants supports the hypothesis that SRF6 and SRF7 regulate CesA-mediated synthesis of the primary cell wall
# [2] = system: CesA and RLK gene expression; settings: isoxaben treatment, cited from earlier work
smiles,measurement,setting,value
CCC(C)(CC)c1cc(NC(=O)c2c(OC)cccc2OC)on1 [isoxaben],response of hypocotyl length to isoxaben vs wild type,"[1]; dominant negative of SRF7, 0.5 and 1 nM isoxaben",increased resistance
same,response of hypocotyl length to isoxaben vs wild type,"[1]; dominant negative of SRF7, 5 and 10 nM isoxaben",increase sensitivity
same,response of hypocotyl length to isoxaben vs wild type,[1]; overexpression of SRF7 in srf7-1 mutant,wild type resistance
same,response of hypocotyl length to isoxaben vs wild type,"[1]; srf6-1 and srf7-1 mutants (extracellular domain insertion), up to 10 μM, p<0.05",significantly more resistant
same,response of hypocotyl length to isoxaben vs wild type,[1]; srf6-2 and srf7-3 mutants,increased sensitivity
same,response of hypocotyl length to isoxaben vs wild type,[1]; srf7-2 mutant,no difference in isoxaben response
same,SRF6 gene expression,[2]; FIG. 10B,reduced gene expression
same,primary cell wall CesA gene expression,[2]; FIG. 10D,reduces primary cell wall CesA gene expression
same,secondary cell wall CesA gene expression,[2]; FIG. 10D,not the secondary cell wall CesAs
